The values below come from US8729088B2, “Toll-like receptor modulators and treatment of diseases” (The Regents of the University of California, priority 2009, dated 2014).

The test system of data set [1] is C57BL/6 mice immunized with ovalbumin (OVA). In words: Adjuvanticity: subcutaneous immunization with OVA mixed with TLR7 conjugates. Format: in vivo, mouse. The procedure: Each ELISA plate contained a titration of a previously quantitated serum to generate a standard curve. […] The various sera samples were tested at a 1:100 dilution.
Spleenocytes were prepared from the harvested spleens.
The efficiency of adjuvanticity was assessed by measurement of the levels and isotypes of the antigen-specific IgG that the vaccine induces, in particular IgG1 and IgG2 (Mosmann, T. R., and Coffman, R. L., ‘TH1 and TH2 cells: different patterns of lymphokine secretion lead to different functional properties’, Annual Review Immunology 7:145-73 (1989)). The groups of C57BL/6 mice (n=5 animals per group) were subcutaneously immunized with OVA (ovalbumin) mixed with TLR7 conjugates. […] Mice immunized with saline or OVA plus vehicle (0.1% DMSO) were used as negative controls.

Data set [2] in a line: Solubility observations. Type of data set: physicochemical.
Data set [3] has as its system TLR7. In words: Cytokine induction in BMDM from wild type and TLR7 deficient mice. Format: cell-based, mouse. As to conditions: BMDM from TLR7 deficient mice. As to the method: In vitro measurements of cytokine induction were performed using the mouse leukemic monocyte macrophage cell line, RAW264.7. […] BMDM were prepared from C57BL/6 and TLR7 deficient mice as described in Wu, C. C et al., (2007) “Immunotherapeutic activity of a conjugate of a Toll-like receptor 7 ligand”, Proc Natl Acad Sci USA 104, 3990-5.
In general, RAW264.7 cells or BMDM were incubated with various concentrations of conjugates for 18 hours at 37° C., 5% CO2 and culture supernatants were collected. The levels of cytokines (IL-6, IL-12 or TNF-α in the supernatants were determined by ELISA (BD Biosciences Pharmingen, La Jolla, Calif.) (Cho, H. J et al., “Immunostimulatory DNA-based vaccines induce cytotoxic lymphocyte activity by a T-helper cell-independent mechanism” [see comments], Nat Biotechnol 18, 509-14 (2000)), and the results presented in FIG. 2A-D. Data are mean±SEM of triplicates and are representative of three independent experiments. Minimum detection levels of these cytokines were 15 pg/mL.

For data set [4], the target named is T1, TLR7 (Homo sapiens, UniProt Q9NYK1).
T1 construct: endogenous in cells; host or cells: human PBMC from buffy coats (The San Diego Blood Bank)
T1 sequence (Q9NYK1 27-1049): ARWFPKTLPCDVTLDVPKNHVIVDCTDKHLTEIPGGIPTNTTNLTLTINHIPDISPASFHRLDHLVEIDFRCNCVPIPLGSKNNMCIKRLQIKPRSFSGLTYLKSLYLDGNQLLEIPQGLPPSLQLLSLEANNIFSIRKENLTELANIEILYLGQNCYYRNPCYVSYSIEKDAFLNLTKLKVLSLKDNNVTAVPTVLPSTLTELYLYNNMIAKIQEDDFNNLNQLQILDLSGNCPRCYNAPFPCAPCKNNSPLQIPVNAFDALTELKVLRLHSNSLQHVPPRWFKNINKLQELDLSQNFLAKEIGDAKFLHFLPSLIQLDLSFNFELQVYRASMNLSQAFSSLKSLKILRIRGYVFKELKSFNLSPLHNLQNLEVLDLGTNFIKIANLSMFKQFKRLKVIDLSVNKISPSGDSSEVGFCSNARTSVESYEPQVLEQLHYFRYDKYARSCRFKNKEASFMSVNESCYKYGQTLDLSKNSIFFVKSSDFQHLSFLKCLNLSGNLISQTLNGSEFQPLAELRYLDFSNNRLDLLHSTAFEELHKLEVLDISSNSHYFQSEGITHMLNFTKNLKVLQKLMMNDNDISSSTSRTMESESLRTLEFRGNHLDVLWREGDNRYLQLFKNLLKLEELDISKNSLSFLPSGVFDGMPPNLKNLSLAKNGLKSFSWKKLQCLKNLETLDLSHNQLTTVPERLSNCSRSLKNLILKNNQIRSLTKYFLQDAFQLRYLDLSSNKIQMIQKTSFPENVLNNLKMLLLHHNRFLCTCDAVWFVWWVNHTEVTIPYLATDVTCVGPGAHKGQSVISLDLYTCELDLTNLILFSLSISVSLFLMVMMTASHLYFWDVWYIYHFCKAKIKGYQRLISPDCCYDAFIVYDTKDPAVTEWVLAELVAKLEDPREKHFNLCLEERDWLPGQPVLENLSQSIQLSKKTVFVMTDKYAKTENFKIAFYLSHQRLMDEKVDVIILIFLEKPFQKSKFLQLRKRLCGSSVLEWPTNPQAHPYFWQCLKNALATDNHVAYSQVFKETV
Nature of the data set: Cytokine induction in human PBMC, LUMINEX bead assay. Format: cell-based. Conditions: 18 hours. As to the method:
Human blood peripheral mononuclear cells (PBMC) were isolated from human buffy coats, purchased from The San Diego Blood Bank (San Diego, Calif.), as described in Hayashi, T et al., “Enhancement of innate immunity against Mycobacterium avium infection by immunostimulatory DNA is mediated by indoleamine 2,3-dioxygenase”, Infect Immun 69:6156-64, (2001). PBMC (1×10^6/mL) were incubated with various concentrations of TLR7 conjugates for 18 hours at 37° C., 5% CO2 and culture supernatants were collected. The levels of cytokines (IL-6, TNF-α, or IFNα1) in the supernatants were determined by LUMINEX bead assays (Invitrogen, Carlsbad, Calif.), and the results presented in FIG. 3A-B. Data are mean±SEM of triplicates and are representative of three independent experiments. The minimum detection levels of IL-6, TNF-α, and IFNα1 were 6 pg/mL, 10 pg/mL and 15 pg/mL, respectively.
To further investigate the immunological activities in human cells, human PBMC from three donors were treated with TLR7 conjugates and the levels of IL-6 and IFNa1 were determined by LUMINEX assay (FIG. 3A-B).

Data set [5] concerns C57BL/6 mice. Nature of the data set: Serum transferred arthritis (K/BxN serum). Type of data set: in vivo, mouse. As to the method:
The anti-inflammatory efficacy of TLR7 agonist-PEG conjugates was tested in mouse models of human inflammatory diseases (serum transfer arthritis, experimental allergic encephalomyelitis (EAE) (see above), and thioglycollate induced peritonitis).

Data set [6] deals with pro-inflammatory cytokines (IL-6, TNF-α) in sera. In words: In vivo kinetics of pro-inflammatory cytokine induction after intravenous injection. More on the design: species or system mouse. The procedure:
The pharmacokinetics of pro inflammatory cytokine induction by TLR7 conjugates was examined using 6- to 8-week old C57BL/6 mice. […] Blood samples were collected 2, 4, 6, 24 or 48 hours after injections. Sera were separated and kept at −20° C. until use.

Data set [7] relates to C57BL/6 mice. Nature of the data set: MOG induced experimental autoimmune encephalomyelitis (EAE).
Experimental: The effect of compound (8) on experimental autoimmune encephalomyelitis (EAE) was determined using C57BL/6 mice treated with myelin oligodendrocyte glycoprotein (MOG).
Treatment with MOG (or MOG peptides) may be used to induce EAE. Mice were treated with MOG protein for 6 days. On day 6 and onward (see FIG. 8), 50 nmoles of compound (8) or PBS were intravenously (i.v.) injected everyday. EAE clinical scores were used as a clinical metric for demyelination and were determined visually.
MOG protein was also used to evaluate potential adverse effect of various TLR7 conjugates, as described above. Evaluation of the results were by observation of various symptoms associated with MOG induced EAE (e.g., brain inflammation, demyelination of neurons and the like).

“Also recorded” adds a separate entry of the source.

`CCCCCCCC/C=C\CCCCCCCC(=O)OCC(COP(=O)(O)OCCNC(=O)c1ccc(Cn2c(=O)[nH]c3c(N)nc(OCCOC)nc32)cc1)OC(=O)CCCCCCC/C=C\CCCCCCCC` (stereo not drawn) [Compound 6, 2-(4-((6-amino-2-(2-methoxyethoxy)-8-oxo-7H-purin-9(8H)-yl)methyl)benzamido)ethyl 2,3-bis(oleoyloxy)propyl phosphate]: the “onset of induction of anti-OVA antibodies” value in data set [1] (OVA mixed with conjugate, s.c., days 0 and 7) worked out at 14 days. Besides, the “OVA-specific IFNγ secretion by spleen cells” value in data set [1] (day 56 splenocytes restimulated with OVA) is “enhanced”. Also, the “anti-OVA IgG2a levels” value in data set [1] (serum, ELISA, days 0-56) is “continuously increased; also recorded: rapid elevation; also recorded: sustained and further accelerated levels”. Moreover, the “dissolution in suitable solvents for testing” value in data set [2] was “difficulty in dissolution”. Further, the “IL-12 and IL-6 induction” value in data set [3] is “little or no IL-12 and IL-6”. Besides, the “order of TLR7 conjugate potency” value in data set [4] is given as “(4b)>(6)>(9)>/=SM>(8)”.
In the case of `COCCOc1nc(N)c2nc(O)n(Cc3ccc(C(=O)NCCOCCOCCOCCOCCOCCOCCOCCOCCOCCOCCn4cc(CCC(=O)O)nn4)cc3)c2n1` [Compound 8, 3-(1-(1-(4-((6-amino-8-hydroxy-2-(2-methoxyethoxy)-9H-purin-9-yl)methyl)phenyl)-1-oxo-5,8,11,14,17,20,23,26,29,32-decaoxa-2-azatetratriacontan-34-yl)-1H-1,2,3-triazol-4-yl)propanoic acid], in data set [2], the “solubility in aqueous solution” value is “improves dramatically”. In addition, the “IL-12 and IL-6 induction” value in data set [3] was “little or no IL-12 and IL-6”. The paw swelling entry in data set [5] (daily gavage) and in data set [5] (daily subcutaneous injection) was “reduced paw swelling” in each case. For the same molecule, the “IL-6 induction in serum” value in data set [6] (200 nmol per animal i.v.) is listed as “only a low level”. The “TNFα induction in serum” value in data set [6] (200 nmol per animal i.v., any point post injection) is reported as “no significant induction”. The “IL-6 or TNFα stimulating activity” value in data set [6] (FIGS. 4A-B) is recorded as “little or no IL-6 or TNFα stimulating activity”. The antagonistic activity result in data set [6] (concluded from FIGS. 4A-B, 7A-B and 8) is “antagonistic activity under certain conditions”. Further, in data set [7] (50 nmoles i.v. every day from day 6, days 11-17), the “EAE clinical score / severity of symptoms” value is recorded as “significantly reduces the severity of EAE symptoms”. Also, in data set [7] (mouse, in vivo), the adverse reaction result was “no additional adverse reaction”. The “order of TLR7 conjugate potency” value in data set [4] is reported as “(4b)>(6)>(9)>/=SM>(8)”.
On to `CCCCCCCC/C=C\CCCCCCCC(=O)OCC(COP(=O)(O)OCCNC(=O)CCc1cn(CCOCCOCCOCCOCCOCCOCCOCCOCCOCCOCCNC(=O)c2ccc(Cn3c(O)nc4c(N)nc(OCCOC)nc43)cc2)nn1)OC(=O)CCCCCCC/C=C\CCCCCCCC` (stereo not drawn) [Compound 9, 2-(3-(1-(1-(4-((6-amino-8-hydroxy-2-(2-methoxyethoxy)-9H-purin-9-yl)methyl)phenyl)-1-oxo-5,8,11,14,17,20,23,26,29,32-decaoxa-2-azatetratriacontan-34-yl)-1H-1,2,3-triazole-4-yl)propanamido)ethyl 2,3-bis(oleoyloxy)propyl phosphate], for which, in data set [1] (mouse, in vivo), the “Th1 response (IgG2a levels)” value is reported as “minimal Th1 response” and the “Th2 immune response (IgG1 levels)” value is “induce a Th2 immune response”. In addition, in data set [3], the “IL-12 and IL-6 induction” value was “little or no IL-12 and IL-6”. Further, the “order of TLR7 conjugate potency” value in data set [4] is given as “(4b)>(6)>(9)>/=SM>(8)”.
